Results published in ChEMBL document CHEMBL5291721, “A preclinical secondary pharmacology resource illuminates target-adverse drug reaction associations of marketed drugs” (Nat Commun, 2023).

Tests used:
Cannabinoid receptor 1 = Cannabinoid receptor 1 (Homo sapiens, UniProt P21554); format: functional, cell-based
Histamine H1 receptor = Histamine H1 receptor (Homo sapiens, UniProt P35367)
Endothelin-1 receptor = target: T1, Endothelin-1 receptor (Homo sapiens, UniProt P25101)
T1 sequence (P25101 whole entry): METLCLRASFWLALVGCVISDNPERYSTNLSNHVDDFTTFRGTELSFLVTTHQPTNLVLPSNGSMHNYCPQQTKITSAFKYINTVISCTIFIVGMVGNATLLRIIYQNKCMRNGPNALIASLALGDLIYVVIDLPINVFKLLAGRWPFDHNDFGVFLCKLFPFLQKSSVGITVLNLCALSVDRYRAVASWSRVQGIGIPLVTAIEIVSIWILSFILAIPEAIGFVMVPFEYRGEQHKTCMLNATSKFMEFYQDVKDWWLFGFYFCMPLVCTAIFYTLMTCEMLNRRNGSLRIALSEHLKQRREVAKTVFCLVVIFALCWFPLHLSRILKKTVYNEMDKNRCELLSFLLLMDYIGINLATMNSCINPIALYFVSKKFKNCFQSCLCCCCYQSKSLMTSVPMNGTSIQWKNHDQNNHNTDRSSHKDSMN

Estrogen receptor = target: T2, Estrogen receptor (Homo sapiens, UniProt P03372); format: functional
T2 sequence (P03372 whole entry): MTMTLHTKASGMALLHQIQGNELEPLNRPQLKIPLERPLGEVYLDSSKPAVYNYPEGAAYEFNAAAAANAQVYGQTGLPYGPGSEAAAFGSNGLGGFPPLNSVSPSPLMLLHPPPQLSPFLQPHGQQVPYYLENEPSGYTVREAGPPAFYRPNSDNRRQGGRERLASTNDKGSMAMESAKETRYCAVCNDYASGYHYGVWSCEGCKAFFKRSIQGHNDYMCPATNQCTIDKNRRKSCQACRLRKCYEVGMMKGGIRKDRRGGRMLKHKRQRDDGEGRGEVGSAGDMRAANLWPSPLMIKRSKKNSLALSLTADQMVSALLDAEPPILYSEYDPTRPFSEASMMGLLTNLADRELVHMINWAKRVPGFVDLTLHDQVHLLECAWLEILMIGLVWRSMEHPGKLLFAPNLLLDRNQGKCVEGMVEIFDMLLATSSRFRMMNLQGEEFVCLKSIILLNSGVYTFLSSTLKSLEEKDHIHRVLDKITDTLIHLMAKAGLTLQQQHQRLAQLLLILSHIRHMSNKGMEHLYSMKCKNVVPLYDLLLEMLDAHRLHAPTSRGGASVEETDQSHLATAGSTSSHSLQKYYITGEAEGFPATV

[1] = target: T3, Neuropeptide Y receptor type 2 (Homo sapiens, UniProt P49146)
T3 sequence (P49146 whole entry): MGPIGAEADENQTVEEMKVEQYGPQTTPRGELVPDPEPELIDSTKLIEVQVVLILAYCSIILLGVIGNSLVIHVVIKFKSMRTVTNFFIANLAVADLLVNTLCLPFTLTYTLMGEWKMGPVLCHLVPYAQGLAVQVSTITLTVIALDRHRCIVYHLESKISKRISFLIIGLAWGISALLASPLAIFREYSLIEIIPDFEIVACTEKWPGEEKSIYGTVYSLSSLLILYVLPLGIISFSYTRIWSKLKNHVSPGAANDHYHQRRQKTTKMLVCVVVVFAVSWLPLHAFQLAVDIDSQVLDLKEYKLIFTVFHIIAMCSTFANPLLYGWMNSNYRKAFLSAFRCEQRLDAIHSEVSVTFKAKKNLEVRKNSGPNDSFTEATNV

[2] = target: Glutamate receptor ionotropic, NMDA 1 (Rattus norvegicus, UniProt P35439)
Also: assay procedure not described here.

Chain of Histamine H1 receptor (P35367 whole entry): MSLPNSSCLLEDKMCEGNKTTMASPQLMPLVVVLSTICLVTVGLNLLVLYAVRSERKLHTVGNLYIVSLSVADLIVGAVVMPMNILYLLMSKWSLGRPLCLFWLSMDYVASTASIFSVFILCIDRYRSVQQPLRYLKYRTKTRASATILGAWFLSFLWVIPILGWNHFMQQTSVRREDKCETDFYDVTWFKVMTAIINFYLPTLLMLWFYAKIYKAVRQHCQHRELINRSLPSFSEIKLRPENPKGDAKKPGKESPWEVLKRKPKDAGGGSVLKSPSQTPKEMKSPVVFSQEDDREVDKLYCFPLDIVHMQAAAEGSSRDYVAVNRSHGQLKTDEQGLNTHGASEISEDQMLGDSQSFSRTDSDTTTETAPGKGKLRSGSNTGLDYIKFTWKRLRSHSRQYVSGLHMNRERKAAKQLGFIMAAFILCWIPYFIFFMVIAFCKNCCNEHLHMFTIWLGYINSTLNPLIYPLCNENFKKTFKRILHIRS
Chain of Cannabinoid receptor 1 (P21554 whole entry): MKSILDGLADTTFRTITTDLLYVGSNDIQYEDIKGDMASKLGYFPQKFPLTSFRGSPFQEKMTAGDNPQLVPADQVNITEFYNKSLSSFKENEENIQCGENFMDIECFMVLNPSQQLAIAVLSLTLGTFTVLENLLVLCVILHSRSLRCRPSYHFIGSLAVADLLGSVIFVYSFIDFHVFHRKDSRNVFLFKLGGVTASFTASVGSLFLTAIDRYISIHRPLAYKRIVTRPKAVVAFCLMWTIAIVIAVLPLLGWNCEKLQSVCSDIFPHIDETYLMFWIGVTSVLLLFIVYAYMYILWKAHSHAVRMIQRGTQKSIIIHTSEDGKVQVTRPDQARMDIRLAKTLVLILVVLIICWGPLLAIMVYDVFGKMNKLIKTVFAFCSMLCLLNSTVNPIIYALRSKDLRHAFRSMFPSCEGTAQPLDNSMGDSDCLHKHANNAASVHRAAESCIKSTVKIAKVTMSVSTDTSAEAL

SMILES	AC50 (Cannabinoid receptor 1)	AC50 (Histamine H1 receptor)	AC50 (Endothelin-1 receptor)	AC50 (Estrogen receptor)	AC50 [1]	AC50 [2]
Cn1nnc2c(C(N)=O)ncn2c1=O [TEMOZOLOMIDE]	> 30 µM	> 30 µM	> 30 µM	> 30 µM	> 30 µM	> 10 µM
CCCN1C[C@H](CSC)C[C@@H]2c3cccc4[nH]cc(c34)C[C@H]21 [PERGOLIDE]	> 10 µM		> 30 µM	> 30 µM	> 30 µM	> 10 µM
Cc1c(C(=O)NN2CCCCC2)nn(-c2ccc(Cl)cc2Cl)c1-c1ccc(Cl)cc1 [RIMONABANT]		22 µM	> 30 µM	> 10 µM	> 30 µM	> 10 µM
